Consider 3 compounds from article PMC8456852 (Clinical Pharmacology in Drug Development, 2021).

The conditions of data set [1]: for Geometric mean area under the concentration‐time curve: AUC type not specified; for CL/F (apparent clearance): Overall (N = 12), healthy Japanese, arithmetic mean (SD); for AUC0‐∞, healthy Japanese (this study) vs ING114580 / Maximum concentration, healthy Japanese (this study) vs ING114580: greater in healthy Japanese participants.
The conditions of data set [2]: cited from earlier work; for Maximum concentration: studied as individual components, abacavir 600 mg and lamivudine 300 mg.
A further data set is described as follows: clinical. Particulars: human, in vivo, po.
For data set [3] the following is noted: cited from earlier work.
Data set [4] has as its system uridine diphosphate glucuronosyltransferase family 1 member A1 (UGT1A1). Particulars: cited from earlier work.
Data set [5] has as its system adenosine triphosphate–binding cassette subfamily G transport protein (ABCG2). Particulars: cited from earlier work.
[6] abbreviates: N = 12 healthy Japanese, single oral dose, fasted.
[7] abbreviates: dolutegravir twice‐daily dosing.

What is called Cmax is the peak of the concentration-time curve. The term Tmax denotes the time from dosing to the highest level. As a reminder, the half-life is the time in which the quantity being followed falls by half. Higher therefore signals slow loss. By CL/F is commonly meant clearance divided by bioavailability, as obtained after extravascular dosing. For the compound `Nc1nc(NC2CC2)c2ncn([C@H]3C=C[C@@H](CO)C3)c2n1` [Abacavir, abacavir], in data set [1] (setting [6]), the “Geometric mean CL/F” value is 32.9 L/h, the “Geometric mean maximum plasma concentration” value stood at 5.22 µg/mL and the “Geometric mean area under the concentration‐time curve” value (“Geometric mean area” for short) was found to be 18200 ng·h/mL. The “CL/F (apparent clearance)” value in data set [1] (single oral dose, fasted) is 33.7 (8.54) L/h. Also, in data set [1], the “AUC0‐∞, healthy Japanese (this study) vs ING114580” value is “≈ 1.3 fold” and the “Maximum concentration, healthy Japanese (this study) vs ING114580” value came out at 1.3 fold. In data set [2], the Maximum concentration is 4.26 ± 1.19 µg/mL. In the data set “clinical” (both), the highest level (Cmax) was 5380 ng/mL, the Tmax worked out at 1.01 h, the concentration at 24 h amounted to 6.75 ng/mL and the half-life is 2.84 h. In the data set “clinical” (female), the CL/F is 10.5 mL/min/kg, the Cmax came out at 5770 ng/mL, the Tmax is 1.51 h and the concentration at 24 h stood at 6.6 ng/mL. Moreover, the half-life in “clinical” (female) was 2.87 h. In the data set “clinical” (male), the CL/F is 9 mL/min/kg, the concentration peaked (Cmax) at 4600 ng/mL, the Tmax was 0.99 h and the concentration at 24 h was 7.1 ng/mL. The compound also had a half-life in “clinical” (male) of 2.77 h.
Regarding `C[C@@H]1CCO[C@H]2Cn3cc(C(=O)NCc4ccc(F)cc4F)c(=O)c(O)c3C(=O)N12` [Dolutegravir, dolutegravir], in data set [1] (setting [6]), the “Exposure (geometric mean AUC0‐∞) of dolutegravir vs abacavir and lamivudine” value was “≈ 4 times”; the “Geometric mean CL/F” value worked out at 0.678 L/h; the “Geometric mean maximum plasma concentration” value amounted to 4.13 µg/mL; the “tmax relative to abacavir (times more slowly)” value is listed as 3 times. For the same compound, the “Geometric mean area” value in data set [1] (setting [6]) came out at 71600 ng·h/mL. In addition, the “CL/F (apparent clearance)” value in data set [1] (single oral dose, fasted) was 0.691 (0.145) L/h. Further, the “Exposure, this study vs ING115381” value in data set [1] (higher than in healthy Japanese participants given dolutegravir 50 mg alone) came out at 1.9 fold. In data set [2] (setting [7]), the “Cmax (geometric mean)” value is 4150 ng/mL and the “Geometric mean AUC from time 0 to 24 hours” value is 75100 ng·h/mL. Besides, the “Increase in dolutegravir exposure with atazanavir (UGT1A1 inhibitor)” value in data set [2] (once‐daily dosing with atazanavir) was “≈ 2 fold”. The “Exposure in individuals with ABCG2 genetic variant 421AA” value in data set [3] is “demonstrably higher”. For the same compound, the “Exposure increase in UGT1A*6 heterozygous individuals” value in data set [3] (evaluation of 9 phase 1/2 clinical studies) is listed as “≈ 1.4 fold”. Moreover, the “Total magnitude of change in exposure from body weight” value in data set [3] (population PK models) is on record as below 30%. Also, the “Oral bioavailability, higher in women than men” value in data set [3] (population PK) is “≈ 21%”. In data set [4], the “Substrate of UGT1A1” value is “substrate”. For the same compound, the “Substrate of ABCG2” value in data set [5] was “substrate”. In “clinical” (both), the Cmax was found to be 4210 ng/mL, the Tmax was 3.5 h and the concentration at 24 h was 1150 ng/mL. Also, in “clinical” (female), the CL/F was 0.167 mL/min/kg, the Cmax was found to be 4450 ng/mL, the Tmax is 2.98 h and the concentration at 24 h was 1130 ng/mL. The compound further had a half-life in “clinical” (female) of 13.7 h. In “clinical” (male), the CL/F is 0.167 mL/min/kg, the peak level (Cmax) was 3750 ng/mL, the time of peak concentration (Tmax) was found to be 4 h and the concentration at 24 h is 1180 ng/mL. This compound had a half-life in the data set “clinical” (male) of 14.6 h.
In the case of `Nc1ccn([C@@H]2CS[C@H](CO)O2)c(=O)n1` [Lamivudine, lamivudine], in data set [1] (setting [6]), the “Geometric mean maximum plasma concentration” value is 3.35 µg/mL, the “tmax relative to abacavir (times more slowly)” value is 3 times and the “Geometric mean area” value was 16600 ng·h/mL. In addition, in data set [1], the “AUC0‐∞, healthy Japanese (this study) vs ING114580” value is given as “≈ 1.3 fold” and the “Maximum concentration, healthy Japanese (this study) vs ING114580” value is recorded as 1.6 fold. Besides, the “Median tmax, this study vs EPZ104807” value in data set [1] (higher than previously reported in Japanese participants (abacavir/lamivudine formulation)) is on record as 1.5 fold. In data set [2], the Maximum concentration was 2.04 ± 0.54 µg/mL. For the same compound, in the data set “clinical” (both), the Cmax amounted to 3430 ng/mL, the Tmax came to 2.98 h and the concentration at 24 h worked out at 38.7 ng/mL. Moreover, in “clinical” (female), the Cmax came out at 3650 ng/mL, the Tmax came out at 2.98 h and the concentration at 24 h is 32.6 ng/mL. Besides, in “clinical” (male), the Cmax was 2980 ng/mL, the Tmax is 2.5 h and the concentration at 24 h was 50.9 ng/mL.
